Assay results reported in patent US11883398B2, “Dipeptidylpeptidase 4 inhibition enhances lymphocyte trafficking, improving both naturally occurring tumor immunity and immunotherapy” (INSTITUT PASTEUR, priority 2015, dated 2024).

How the values were obtained:
B16F10 tumors = assay: Flow cytometry of leukocytes infiltrating B16F10 tumors; assay type: in vivo, mouse
Procedure: B16F10 and M04 (Ovalbumin-expressing B16F10 cells, gift from C. Reis e Sousa) tumor cells were cultured in DMEM (Gibco) supplemented with 10% FCS (PAA), 0.1 mM non-essential amino acids, 1 mM sodium pyruvate, 10 mM Hepes, 70 μM beta-mercaptoethanol and 23 μg/ml gentamycin (all from Gibco). CT26 colon carcinoma cells were cultured in RPMI (Gibco) supplemented as described for DMEM. Cells for injections were passaged 1-2 times after thawing, before use. WT and genetically modified mice were subcutaneously injected with 2×10^5 B16 or 5×10^5 CT26 cells in the shaved right flank. When indicated, mice received an intra-tumoral injection of 1 μg of recombinant mCXCL10, 5 μg CpG-A in DOPTAP or vehicle control. For blocking of chemokine and chemokine receptors, WT mice were intraperitoneally injected with 100 μg of hamster a-mCXCR3 (clone CXCR3-173, BioLegend), 100 μg of hamster α-mCCR5 (clone HM-CCR5, BioLegend), 50 μg of rat anti-mCXCL10 (clone 134013, R&D systems) and 20 μg of rat-α-mCXCR4 (clone 2B11/CXCR4, BD Biosciences) or with respective isotype antibodies (hamster IgG (clone HTK888, BioLegend, used as control for mCXCR3 and mCCR5 blockage); rat IgG2a (clone 54447, R&D systems, used as control for mCXCL10 blockade) and rat IgG2b (clone A95-1, BD Biosciences, used as control for mCXCR4 blockade). Intraperitoneal injection was done one day before and 4, 8 and 12 days after tumor cell injection. For CXCL10 neutralization, antibodies were injected on day 2, 5, 8 and 11 after tumor cell injection. For immunotherapy protocols, mice were intraperitoneally injected with 100 μg of mouse α-CTLA-4 (clone 9D9, Bioxcell), 200 μg of PD1 (clone RMP1-14, Bioxcell), a combination of 100 μg of α-CTLA-4+200 μg of a-PD1 or control isotypes (100 μg […] and 200 μg rat IgG2a (clone 2A3), both from Bioxcell) on day 3, 6 and 9 after tumor cell implantation. For adoptive cell transfer experiments, Pmel-1 Thy-1.1^+Thy-1.1^+, Cxcr3^−/− Thy-1.1^+Thy-1.2^+ Pmel-1 or OT1 splenocytes were activated ex-vivo, by incubation with 1 nM of human gp100 (for Pmel-1 cells) or […] (for OT1 cells) peptides for 1h at room temperature with agitation. Splenocytes were then washed and resuspended in R10 supplemented with 30U/mL of recombinant human IL-2. CD8^+ T cells were expanded for 6-7 days before used. For analysis of tumor infiltrates, activated Cxcr3^+/+ Thy-1.1^+Thy-1.1^+ and Cxcr3^−/− Thy-1.1^+Thy-1.2^+ transgenic Pmel-1 CD8^+ T cells were mixed in a 1:1 ratio (total 1×10^6 cells) and injected intravenously into gender matched tumor-bearing mice (3 days after tumor cell injection). For analysis of tumor growth, activated OT1 cells were injected intravenously (1×10^5 cells per mouse) into gender matched tumor-bearing mice, 3 days after tumor cell injection. Tumor height and width were measured with a caliper and tumor volume was calculated (Elliptical volume=width^2×height×0.523). The model of metastatic melanoma was achieved by intravenous injection of 2×10^5 B16 tumor cells. 15 days after tumor cell injection, lungs were dissected, placed in Fekete's solution and metastatic foci were counted. Lungs with more than 100 metastatic nodules were defined as 100.
Fluorochrome-conjugated anti-mouse CD3 (clone145-2C11), CD8 (clone 53-6.7), CD4 (clone RM4-5), NK1.1 (clone PK136), CD49b (clone DX5), CD25 (clone PC61), B220 (clone RA3-6B2), Ly6G (clone 1A8), Ly6C (clone AL-21), CD11 b (clone M1/70) Siglec-F (clone E50-2440), MHCII IA-IE (clone M5/114.15.2), CD45.2 (clones 56-0454-82 and 109830), Thy-1.1 (clone HIS51), Thy-1.2 (clone 53-2.1), DPP4 (clone H194-112) and CXCR3 (clone CXCR3-173) were from eBiosciences and BD Biosciences. Fluorochrome conjugated anti-F4/80 (clone CI:A3-1) was from AbDserotec. For exclusion of dead cells, Live/Dead fixable Aqua reagent (Invitrogen) was used. For all staining protocols, cell suspensions were incubated with mouse CD16/CD32 Fc Blocking antibodies (BD Biosciences) prior to antibody. […]

mCXCL10 = details: sitagliptin vs control
Procedure: Plates were washed twice with 300 μL of PBS. Blocking was done with BSA 1% (proteinase free, Gibco), in PBS for 2h at room temperature. Plates were washed 3 times with 300 μL of 0.05% Tween-20 in PBS. Tumor and plasma samples were diluted in BSA 1% and incubated for 2h, at room temperature. To obtain a standard curve, and to control for the cross-reactivity of the detection antibody, dilutions of recombinant mCXCL10 (Peprotech) or DPP4-digested mCXCL10(3-77) were incubated in parallel. For detection of mCXCL10(1-77), biotinylated α-mCXCL10(1-77) (AbDSerotec, 0.5 μg/ml, clone AbD17185.1), Streptavidin-HRP (BD Biosciences) and 1-STEP ULTRA TMB (Thermo Scientific) were used.
Enzymatic reactions were stopped with HCL 1N and plates were read with 450 nm in a Lab-systems […] MS (Thermo) reader. […] Detection of mDPP4, mCCL22 and mCXCL12 was done with the DUOSET® ELISA kit (R&D). Detection of mVEGF, mCCL2 and mCCL3 was done with a multiplex kit (Invitrogen).

DPP8 = DPP8 (Homo sapiens, UniProt Q6V1X1); details: Verspohl 2012; Huan et al. 2015; cited from earlier work
Chain of DPP8 (Q6V1X1 whole entry, species assumed): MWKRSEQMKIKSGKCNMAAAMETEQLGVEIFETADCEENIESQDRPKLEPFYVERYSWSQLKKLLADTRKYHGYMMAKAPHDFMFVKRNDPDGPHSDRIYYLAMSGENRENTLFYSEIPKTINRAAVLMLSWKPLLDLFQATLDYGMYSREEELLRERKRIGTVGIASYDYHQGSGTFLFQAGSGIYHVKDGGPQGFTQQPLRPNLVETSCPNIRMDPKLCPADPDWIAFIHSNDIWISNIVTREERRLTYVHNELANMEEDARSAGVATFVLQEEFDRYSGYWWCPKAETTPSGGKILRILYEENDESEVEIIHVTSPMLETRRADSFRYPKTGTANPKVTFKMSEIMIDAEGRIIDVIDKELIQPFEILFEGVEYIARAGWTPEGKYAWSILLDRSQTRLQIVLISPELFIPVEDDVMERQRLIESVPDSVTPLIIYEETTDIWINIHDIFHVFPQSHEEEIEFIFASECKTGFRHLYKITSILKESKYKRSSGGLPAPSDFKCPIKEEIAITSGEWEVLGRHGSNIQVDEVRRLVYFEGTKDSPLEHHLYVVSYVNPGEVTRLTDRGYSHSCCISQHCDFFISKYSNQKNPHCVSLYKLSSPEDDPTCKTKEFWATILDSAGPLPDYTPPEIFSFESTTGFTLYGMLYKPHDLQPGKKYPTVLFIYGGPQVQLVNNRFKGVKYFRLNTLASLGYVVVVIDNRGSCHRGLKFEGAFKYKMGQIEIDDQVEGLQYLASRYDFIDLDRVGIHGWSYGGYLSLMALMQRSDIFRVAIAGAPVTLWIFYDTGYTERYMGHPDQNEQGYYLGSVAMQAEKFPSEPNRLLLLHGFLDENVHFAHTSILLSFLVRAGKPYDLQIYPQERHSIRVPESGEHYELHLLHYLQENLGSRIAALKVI

[1] = B16F10 tumors, sitagliptin vs control

N[C@@H](CC(=O)N1CCn2c(nnc2C(F)(F)F)C1)Cc1cc(F)c(F)cc1F [sitagliptin]
number of CD4+ and CD8+ T cells localized to the tumors (B16F10 tumors; [1]): significant increase | number of tumor-infiltrating myeloid cells, NK cells, B lymphocytes or CD25hi regulatory T cells (B16F10 tumors; [1]): no significant differences | CXCL10-mediated trafficking of Pmel-1 cells into B16F10 tumors (B16F10 tumors; adoptive transfer, 12-14 hr after intratumoral mCXCL10): enhanced | lymphocyte recruitment into the tumor parenchyma after intratumoral mCXCL10 (B16F10 tumors; day 7 B16F10 tumors, 12-14 h after injection): enhanced CXCL10 recruitment of T cells and NK cells | trafficking of B cells, regulatory T cells, eosinophils or neutrophils into tumors after intratumoral mCXCL10 (B16F10 tumors; day 7 B16F10 tumors, sitagliptin vs control): unchanged | quantity of plasma mCCL2 (mCXCL10; CpG-A intravenously): higher | CpG-A-induced plasma total CXCL10 (mCXCL10; WT mice, 5 μg CpG-A intravenously): stabilization of CpG-A-induced plasma CXCL10 | quantity of plasma mCXCL10(1-77) (mCXCL10; WT mice, CpG-A intravenously): significantly higher | effect on DPP8 activity (DPP8): no effect
